Results published in patent US20110301142A1, “ANTAGONISTS OF LYSOPHOSPHATIDIC ACID RECEPTORS” (priority 2008, published 2011).

Legend:
[1] = tested on: A2058 human melanoma cells; test: LPA1 chemotaxis assay; type: cell-based; settings: 100 nM LPA, read-out: IC50, inhibition of LPA-driven chemotaxis
Method: Chemotaxis of the A2058 human melanoma cells was measured using the Neuroprobe ChemoTx® System plates (8 μm pore size, 5.7 mm diameter sites). The filter sites were coated with 0.001% fibronectin (Sigma) in 20 mM Hepes, pH 7.4 and allowed to dry. A2058 cells were serum-starved for 24 hours, then harvested with Cell Stripper and resuspended in DMEM containing 0.1% fatty-acid-free bovine serum albumin (BSA) to a concentration of 1×10^6/ml. Cells were mixed with an equal volume of test compound (2×) in DMEM containing 0.1% fatty-acid-free BSA and incubated at 37° C. for 15 minutes. LPA (100 nM in DMEM containing 0.1% fatty-acid-free BSA) or vehicle was added to each well of the lower chamber and 50 μl of the cell suspension/test compound mix was applied to the upper portion of the ChemoTx plate. Plates were incubated at 37° C. for three hours and then the cells removed from the upper portion by rinsing with PBS and scraping. The filter was dried then stained with HEMA 3 Staining System (Fisher Scientific). The absorbance of the filter was read at 590 nm and IC50s were determined using Symyx Assay Explorer.

[2] = tested on: Female CD-1 mice; test: Bleomycin-induced lung fibrosis model in mice; type: in vivo
Text: Female CD-1 mice (Harlan, 25-30 g) are housed 4 per cage, given free access to food and water and allowed to acclimate for at least 7 days prior to test initiation. After the habituation phase, mice are lightly anesthetized with isoflurane (5% in 100% O2) and administered with bleomycin sulfate (0.01-5 U/kg, Henry Schein) via intratracheal instillation (Cuzzocrea S et al. Am J Physiol Lung Cell Mol. Physiol. 2007 May; 292(5):L1095-104. Epub 2007 Jan. 12.). Mice are returned to their cages and monitored daily for the duration of the experiment. Test compound or vehicle is delivered po, ip or sc daily. The route and frequency of dosing is based on previously determined pharmacokinetic properties. All animals are sacrificed using inhaled isoflurane 3, 7, 14, 21 or 28 days after bleomycin instillation. Following sacrifice, mice are intubated with a 20 gauge angiocatheter attached to a 1 ml syringe. Lungs are lavaged with saline to obtain bronchoalveolar lavage fluid (BALF) and then removed and fixed in 10% neutral buffered formalin for subsequent histopathological analysis. BALF is centrifuged for 10 min at 800×g to pellet the cells and the cell supernatant removed and frozen at −80° C. for subsequent protein analysis using the DC protein assay kit (Biorad, Hercules, Calif.) and soluble collagen analysis using Sircol (Biocolor Ltd, UK). BALF is analyzed for concentrations of inflammatory, pro-fibrotic and tissue injury biomarkers including transforming growth factor β1, hyaluronic acid, tissue inhibitor of metalloproteinase-1, matrix matelloproteinase-7, connective tissue growth factor and lactate dehydrogenase activity, using commercially available ELISA. The cell pellet is re-suspended in PBS. Total cell counts are then obtained using a Hemavet hematology system (Drew Scientific, Wayne, Pa.) and differential cells counts are determined using Shandon cytospin (Thermo Scientific, Waltham, Mass.). Lung tissue is stained using hematoxylin and eosin (H&E) and trichrome and lung fibrosis.is determined by semiquantitative histopathological scoring (Ashcroft T. et al. J. Clin. Path. 1988; 41; 4, 467-470.) using light microscopy (10× magnification) and quantitative, computer-assisted densitometry of collagen in lung tissue sections using light microscopy. The data are plotted using Graphpad prism and statistical differences between groups determined.

[3] = chronic setting (14 and 28 day), single bleomycin (1.5 units/kg) instillation
[4] = chronic setting, repeated bleomycin (3.0-5.0 units/kg/week) instillations
[5] = chronic setting (14-days only), single bleomycin instillation (3.0 units)

In the case of `Cc1noc(-c2ccc(-c3ccc(CC(=O)O)cc3)cc2)c1NC(=O)O[C@H](C)c1ccccc1Cl` [Compound 1-88, (4′-{4-[(R)-1-(2-Chloro-phenyl)-ethoxycarbonylamino]-3-methyl-isoxazol-5-yl}-biphenyl-4-yl)-acetic acid], the IC50 [1] is reported as < 300 nM, the “efficacy at reducing lung tissue damage and fibrosis compared to pirfenidone” value ([2]; 14 day mouse bleomycin model) is reported as “superior efficacy to pirfenidone” and the “MMP7 concentration in BALF” value ([2]; acute setting (3 day)) is reported as “significantly reduced”. The “TGFβ1 concentration in BALF” value ([2]; acute setting (3 day)) was “significantly reduced”, the “hyaluronan concentration in BALF” value ([2]; acute setting (3 day)) was “significantly reduced” and the “lactate dehydrogenase activity (LDH; tissue injury marker) in BALF” value ([2]; acute setting (3 day)) was “significantly reduced”. For the same molecule, the “tissue inhibitor of metalloproteinase-1 (TIMP-1; pro-fibrotic marker) concentration in BALF” value ([2]; acute setting (3 day)) was “significantly reduced”, the “total protein in broncheoalveolar lavage fluid (BALF)” value ([2]; acute setting (3 day)) was “significantly reduced” and the fibrosis [2, 3] was “decreased”. The inflammatory cell influx [2, 3] was “decreased”, the mouse body weight [2, 3] was “maintained” and the lung fibrosis [2, 4] was “decreased”. For the same molecule, the pulmonary resistance [2, 4] was “decreased”.
With `Cc1noc(-c2ccc(-c3ccc(CC(=O)O)cc3)cc2)c1NC(=O)O[C@H](C)c1ccccc1` [Compound 1-115] the IC50 [1] was < 300 nM, the “lactate in the BALF” value ([2]; acute setting (3-day)) was “reduced” and the “tissue inhibitor of metalloproteinase-1 (TIMP-1; pro-fibrotic marker) concentration in BALF” value ([2]; acute setting (3 day)) was “reduced”. For the same molecule, the “total protein in broncheoalveolar lavage fluid (BALF)” value ([2]; acute setting (3 day)) was “reduced”, the fibrosis [2, 5] was “decreased” and the inflammatory cell influx [2, 5] was “decreased”.
